Reference: patent US20240197756A1, “METHODS OF TREATMENT WITH NEUROACTIVE STEROIDS” (priority 2021, published 2024)

Experiments:
[1] = Khodadoustan et al. (2017); cited from earlier work
[2] = system: GABAA receptors in the brain; conditions: cited from earlier work; for power of the alpha-band frequency (qEEG): comparator GABAA PAMs, previously shown (FIG. 7); for beta-band frequency (qEEG): comparator marketed GABAA PAMs, previously shown
harmaline-induced tremor = assay: rHIT model, coadministration of Compound 1 and Compound 2; type: in vivo, rat; conditions: Compound 2 p.o. 60 min before harmaline
Protocol: Rat Harmaline Induced Tremor (rHIT): The rHIT model was used to assess the impact of the combination of Compound 1 and Compound 2 on reducing the symptoms of tremor. Male SD rats (SLAC, Shanghai, China) weighing about 250 g at the time of testing were housed in a 12:12 light-dark cycle room throughout the study, with the lights on from 5 a.m. to 5 p.m, and fed ad libitum. […]
The rHIT methods described in Example 5 were used. […] After the 20-minute baseline recording, rats were dosed with harmaline and the post-harmaline effect was measured for 20 minutes. […]

[3] = system: extrasynaptic form of GABAA receptors; conditions: cited from earlier work

SMILES | power of the alpha-band frequency (qEEG) [2] | beta-band frequency (qEEG) [2] | further results
CCOC(=O)C1=C(COCCN)NC(C)=C(C(=O)OC)C1c1ccccc1Cl (centres unmarked) [amlodipine besylate] |  |  | Cmax, evening administration compared to morning dosing [1]: increased; Tmax, evening administration compared to morning dosing [1]: reduced
O=C1Nc2ccc(Cl)cc2C(c2ccccc2Cl)=NC1O (centres unmarked) [lorazepam] | decrease | Increases | 
CC(C)(C)NC(=O)CN1CCC(CNC(=O)c2cc(F)cc(Cl)c2)CC1 [Compound 2, N-((1-(2-(tert-butylamino)-2-oxoethyl)piperidine-4-yl)methyl)-3chloro-5-fluorobenzamide] |  |  | effect on tremor (harmaline-induced tremor): tremor-reducing effects
CC(=O)[C@H]1CC[C@H]2[C@@H]3CC[C@H]4C[C@H](O)CC[C@]4(C)[C@H]3CC[C@]12C [allopregnanolone] | decrease | Increases | potency at synaptic and extrasynaptic receptors [3]: equipotent
